Measurements from patent US5202315A, “Cephalosporin compounds” (Lucky, Ltd., priority 1989, dated 1993).
Converted amounts (≈) assume the structure as drawn. Like-named read-outs stand apart in the source and are kept apart here.

Legend:
[1] = test system: Acinetobacter calcoaceticus ATCC 15473; experiment: Antibacterial activity, MIC; format: cell-based; settings: ATCC15473, ATCC 15473, agar two-fold dilution, 37° C., 20 hours, read-out: MIC
Description: (§1) Also, the in vitro antibacterial activity was determined by the by a two-fold dilution method as described below:
(§2) That is, the two-fold serial dilutions of the compound were made dispersed in Muller-Hinton agar medium. 2 μl of standard test strain which had the 10^7 CFU per ml was inoculated on the medium, and was incubated at 37° C. for 20 hours.

[2] = test system: Bacillus cereus ATCC 11778; experiment: Antibacterial activity, MIC; format: cell-based; settings: ATCC11778, ATCC 11778, agar two-fold dilution, 37° C., 20 hours, read-out: MIC
Description: as §1, §2

[3] = test system: Citrobacter freundii ATCC 8090; experiment: Antibacterial activity, MIC; format: cell-based; settings: ATCC8090, ATCC 8090, agar two-fold dilution, 37° C., 20 hours, read-out: MIC
Description: as §1, §2

[4] = test system: Enterobacter aerogenes ATCC 29751; experiment: Antibacterial activity, MIC; format: cell-based; settings: Klebsiella aerogenes, ATCC29751; ATCC 29751; agar two-fold dilution, 37° C., 20 hours; read-out: MIC
Description: as §1, §2

[5] = test system: Enterobacter cloacae ATCC 27508; experiment: Antibacterial activity, MIC; format: cell-based; settings: ATCC27508, ATCC 27508, agar two-fold dilution, 37° C., 20 hours, read-out: MIC
Description: as §1, §2

[6] = test system: Escherichia coli ATCC 10536; experiment: Antibacterial activity, MIC; format: cell-based; settings: ATCC10536, agar two-fold dilution, 37° C., 20 hours
Description: as §1, §2

[7] = test system: Escherichia coli ATCC 25922; experiment: Antibacterial activity, MIC; format: cell-based; settings: ATCC25922, agar two-fold dilution, 37° C., 20 hours
Description: as §1, §2

[8] = test system: Klebsiella pneumoniae ATCC 10031; experiment: Antibacterial activity, MIC; format: cell-based; settings: ATCC10031, ATCC 10031, agar two-fold dilution, 37° C., 20 hours, read-out: MIC
Description: as §1, §2

[9] = test system: Micrococcus luteus ATCC 9341; experiment: Antibacterial activity, MIC; format: cell-based; settings: ATCC9341, ATCC 9341, agar two-fold dilution, 37° C., 20 hours, read-out: MIC
Description: as §1, §2

[10] = test system: Morganella morganii ATCC 8076h; experiment: Antibacterial activity, MIC; format: cell-based; settings: ATCC8076H, agar two-fold dilution, 37° C., 20 hours
Description: as §1, §2

[11] = test system: Proteus mirabilis ATCC 25933; experiment: Antibacterial activity, MIC; format: cell-based; settings: ATCC25933, ATCC 25933, agar two-fold dilution, 37° C., 20 hours, read-out: MIC
Description: as §1, §2

[12] = test system: Proteus vulgaris ATCC 6059; experiment: Antibacterial activity, MIC; format: cell-based; settings: ATCC6059, ATCC 6059, agar two-fold dilution, 37° C., 20 hours, read-out: MIC
Description: as §1, §2

[13] = test system: Providencia rettgeri ATCC 9250; experiment: Antibacterial activity, MIC; format: cell-based; settings: ATCC9250, agar two-fold dilution, 37° C., 20 hours
Description: as §1, §2

[14] = test system: Pseudomonas aeruginosa ATCC 10145; experiment: Antibacterial activity, MIC; format: cell-based; settings: ATCC10145, ATCC 10145, agar two-fold dilution, 37° C., 20 hours, read-out: MIC
Description: as §1, §2

[15] = test system: Pseudomonas aeruginosa ATCC 25619; experiment: Antibacterial activity, MIC; format: cell-based; settings: ATCC25619, ATCC 25619, agar two-fold dilution, 37° C., 20 hours, read-out: MIC
Description: as §1, §2

[16] = test system: Pseudomonas aeruginosa ATCC 27853; experiment: Antibacterial activity, MIC; format: cell-based; settings: ATCC27853, ATCC 27853, agar two-fold dilution, 37° C., 20 hours, read-out: MIC
Description: as §1, §2

[17] = test system: Salmonella typhimurium ATCC 14028; experiment: Antibacterial activity, MIC; format: cell-based; settings: Salmonella enterica; ATCC 14028; agar two-fold dilution, 37° C., 20 hours; read-out: MIC
Description: as §1, §2

[18] = test system: Serratia marcescens ATCC 27117; experiment: Antibacterial activity, MIC; format: cell-based; settings: ATCC27117, ATCC 27117, agar two-fold dilution, 37° C., 20 hours, read-out: MIC
Description: as §1, §2

[19] = test system: Shigella flexneri ATCC 11836; experiment: Antibacterial activity, MIC; format: cell-based; settings: ATCC11836, agar two-fold dilution, 37° C., 20 hours
Description: as §1, §2

[20] = test system: Shigella sonnei ATCC 11060; experiment: Antibacterial activity, MIC; format: cell-based; settings: ATCC11060, ATCC 11060, agar two-fold dilution, 37° C., 20 hours, read-out: MIC
Description: as §1, §2

[21] = test system: Staphylococcus aureus ATCC 10537; experiment: Antibacterial activity, MIC; format: cell-based; settings: ATCC10537, ATCC 10537, agar two-fold dilution, 37° C., 20 hours, read-out: MIC
Description: as §1, §2

[22] = test system: Staphylococcus aureus ATCC 6538p; experiment: Antibacterial activity, MIC; format: cell-based; settings: ATCC6538P, ATCC 6538p, agar two-fold dilution, 37° C., 20 hours, read-out: MIC
Description: as §1, §2

[23] = test system: Staphylococcus epidermidis ATCC 12228; experiment: Antibacterial activity, MIC; format: cell-based; settings: ATCC12228, ATCC 12228, agar two-fold dilution, 37° C., 20 hours, read-out: MIC
Description: as §1, §2

[24] = test system: Streptococcus faecalis ATCC 29212; experiment: Antibacterial activity, MIC; format: cell-based; settings: Enterococcus faecalis, ATCC29212; ATCC 29212; agar two-fold dilution, 37° C., 20 hours; read-out: MIC
Description: as §1, §2

[25] = In-vivo absorbency (plasma concentrations & pharmacokinetic parameters); design: species or system SD rat (male); settings: plasma, SD male rat, iv 20 mg/kg; for concentration at 1 h: 60 min; for concentration at 1 h / concentration at 2 h: read-out: Plasma Conc.; for concentration at 2 h: 120 min; for AUC / half-life: two compartment model; for half-life: rat, iv, 20 mg/kg
Description: The blood samples from the femoral vein of the rats were taken every hour after administration, and analyzed by bio-assay(agar well method).
Tested animal: SD male Rat (220~340 g)

[26] = as above; design: species or system SD rat (male); settings: plasma, SD male rat, iv 20 mg/kg, read-out: Plasma Conc.

SMILES | MIC [1] [mg/L] | MIC [2] [mg/L] | MIC [3] [mg/L] | MIC [4] [mg/L] | MIC [5] [mg/L] | MIC [6] [mg/L] | MIC [7] [mg/L] | MIC [8] [mg/L] | MIC [9] [mg/L] | MIC [10] [mg/L] | MIC [11] [mg/L] | MIC [12] [mg/L] | MIC [13] [mg/L] | MIC [14] [mg/L] | MIC [15] [mg/L] | MIC [16] [mg/L] | MIC [17] [mg/L] | MIC [18] [mg/L] | MIC [19] [mg/L] | MIC [20] [mg/L] | further results
CCc1c(N)nc(SCC2=C(C(=O)[O-])N3C(=O)C(NC(=O)/C(=N\OC(C)(C)C(=O)O)c4csc(N)n4)C3SC2)[n+](C)c1N (stereo not drawn) [Compound I-31] | 8 (≈ 12.3 µM) | 128 (≈ 196 µM) | 0.13 (≈ 0.199 µM) | 2 (≈ 3.07 µM) | 0.016 (≈ 0.0245 µM) | 0.063 (≈ 0.0967 µM) | 0.13 (≈ 0.199 µM) | 0.063 (≈ 0.0967 µM) | 0.5 (≈ 0.767 µM) | ≤ 0.008 | 0.031 (≈ 0.0476 µM) | 0.063 (≈ 0.0967 µM) | ≤ 0.008 | 4 (≈ 6.14 µM) | 1 (≈ 1.53 µM) | 2 (≈ 3.07 µM) | 0.25 (≈ 0.384 µM) | 0.25 (≈ 0.384 µM) | 0.063 (≈ 0.0967 µM) | 0.063 (≈ 0.0967 µM) | MIC [21]: 4 mg/L (≈ 6.14 µM); MIC [22]: 4 mg/L (≈ 6.14 µM); MIC [23]: 2 mg/L (≈ 3.07 µM); MIC [24]: > 128 mg/L; concentration at 1 h [25]: 7.7 µg/mL; concentration at 2 h [25]: 1.6 µg/mL; AUC [25]: 30.5 µg·h/mL; half-life ([25]; read-out: T1/2 (α)): 6 min; half-life ([25]; read-out: T1/2 (β)): 27 min; concentration at 0.5 min [26]: 208 µg/mL; concentration at 2.5 min [26]: 85 µg/mL; concentration at 5 min [26]: 62 µg/mL; concentration at 10 min [26]: 45 µg/mL; concentration at 20 min [26]: 30 µg/mL; concentration at 40 min [26]: 14 µg/mL
CC[n+]1c(SCC2=C(C(=O)[O-])N3C(=O)C(NC(=O)/C(=N\OC(C)(C)C(=O)O)c4csc(N)n4)C3SC2)nc(N)c(C)c1N (stereo not drawn) [Compound I-32] | 8 (≈ 12.3 µM) | 64 (≈ 98.2 µM) | 0.13 (≈ 0.199 µM) | 2 (≈ 3.07 µM) | 0.016 (≈ 0.0245 µM) | 0.13 (≈ 0.199 µM) | 0.13 (≈ 0.199 µM) | 0.063 (≈ 0.0967 µM) | 0.25 (≈ 0.384 µM) | ≤ 0.008 | 0.031 (≈ 0.0476 µM) | 0.063 (≈ 0.0967 µM) | ≤ 0.008 | 4 (≈ 6.14 µM) | 2 (≈ 3.07 µM) | 2 (≈ 3.07 µM) | 0.25 (≈ 0.384 µM) | 0.13 (≈ 0.199 µM) | 0.031 (≈ 0.0476 µM) | 0.13 (≈ 0.199 µM) | MIC [21]: 2 mg/L (≈ 3.07 µM); MIC [22]: 4 mg/L (≈ 6.14 µM); MIC [23]: 1 mg/L (≈ 1.53 µM); MIC [24]: > 128 mg/L; concentration at 1 h [25]: 7.5 µg/mL; concentration at 2 h [25]: 1.8 µg/mL; AUC [25]: 30.5 µg·h/mL; half-life ([25]; read-out: T1/2 (α)): 3 min; half-life ([25]; read-out: T1/2 (β)): 29 min; concentration at 0.5 min [26]: 162 µg/mL; concentration at 2.5 min [26]: 75 µg/mL; concentration at 5 min [26]: 53 µg/mL; concentration at 10 min [26]: 35 µg/mL; concentration at 20 min [26]: 21 µg/mL; concentration at 40 min [26]: 13 µg/mL
CCc1c(N)nc(SCC2=C(C(=O)[O-])N3C(=O)C(NC(=O)/C(=N\OC(C)(C)C(=O)O)c4csc(N)n4)C3SC2)[n+](CC)c1N (stereo not drawn) [Compound I-33] | 16 (≈ 24 µM) | 128 (≈ 192 µM) | 0.13 (≈ 0.195 µM) | 4 (≈ 6.01 µM) | 0.031 (≈ 0.0466 µM) | 0.13 (≈ 0.195 µM) | 0.13 (≈ 0.195 µM) | 0.13 (≈ 0.195 µM) | 0.5 (≈ 0.751 µM) | ≤ 0.008 | 0.063 (≈ 0.0946 µM) | 0.13 (≈ 0.195 µM) | ≤ 0.008 | 4 (≈ 6.01 µM) | 2 (≈ 3 µM) | 2 (≈ 3 µM) | 0.5 (≈ 0.751 µM) | 0.5 (≈ 0.751 µM) | 0.063 (≈ 0.0946 µM) | 0.25 (≈ 0.375 µM) | MIC [21]: 4 mg/L (≈ 6.01 µM); MIC [22]: 4 mg/L (≈ 6.01 µM); MIC [23]: 2 mg/L (≈ 3 µM); MIC [24]: > 128 mg/L; concentration at 1 h [25]: 7 µg/mL; concentration at 2 h [25]: 1.2 µg/mL; AUC [25]: 30.5 µg·h/mL; half-life ([25]; read-out: T1/2 (α)): 2 min; half-life ([25]; read-out: T1/2 (β)): 24 min; concentration at 0.5 min [26]: 194 µg/mL; concentration at 2.5 min [26]: 79 µg/mL; concentration at 5 min [26]: 55 µg/mL; concentration at 10 min [26]: 36 µg/mL; concentration at 20 min [26]: 21 µg/mL; concentration at 40 min [26]: 13 µg/mL
